Active and inactive are the calls of the source. The rule behind the calls is not given here.
Tests used:
[1] = Plasma concentration in SCID mouse xenografted with human NCI-H838 cells at 10 mg/kg, iv measured after 96 hrs by LC-MS/MS analysis; assay type: ADME, organism-based
[2] = Drug uptake in tumor of human NCI-H838 cells xenografted SCID mouse model at 10 mg/kg, iv measured after 24 hrs by LC-MS/MS analysis; assay type: ADME, organism-based, Neoplasm; details: read-out: Drug uptake
[3] = Drug uptake in tumor of human NCI-H838 cells xenografted SCID mouse model at 10 mg/kg, iv measured after 96 hrs by LC-MS/MS analysis; assay type: ADME, organism-based, Neoplasm; details: read-out: Drug uptake
[4] = Drug uptake in tumor of human NCI-H838 cells xenografted SCID mouse model at 10 mg/kg, iv measured after 168 hrs by LC-MS/MS analysis; assay type: ADME, organism-based, Neoplasm; details: read-out: Drug uptake
[5] = Antiproliferative activity against human SMARCA4-deficient NCI-H1944 cells assessed as inhibition of cell growth measured after 7 days by WST-8 assay; assay type: functional; details: NCI-H1944, 168 h, time 7 day
[6] = Antiproliferative activity against human SMARCA4-deficient NCI-H1693 cells assessed as inhibition of cell growth measured after 7 days by WST-8 assay; assay type: functional; details: NCI-H1693, 168 h, time 7 day
NCI-H1792 = assay: Antiproliferative activity against human SMARCA4-wild type NCI-H1792 cells assessed as inhibition of cell growth measured after 7 days by WST-8 assay; assay type: functional; details: NCI-H1792, 168 h, time 7 day
SK-MEL-5 = assay: Antiproliferative activity against human SMARCA4-deficient SK-MEL-5 cells assessed as maximal inhibition of cell growth measured after 7 days by WST-8 assay relative to control; assay type: functional; details: time 7 day
[7] = Antiproliferative activity against human SMARCA4-deficient NCI-H838 cells assessed as maximal inhibition of cell growth measured after 7 days by WST-8 assay relative to control; assay type: functional; details: time 7 day
[8] = Antiproliferative activity against human SMARCA4-deficient NCI-H1568 cells assessed as maximal inhibition of cell growth measured after 7 days by WST-8 assay relative to control; assay type: functional; details: time 7 day
[9] = Antiproliferative activity against human SMARCA4-deficient NCI-H1693 cells assessed as maximal inhibition of cell growth measured after 7 days by WST-8 assay relative to control; assay type: functional; details: time 7 day
[10] = Half life in mouse at 1 mg/kg, iv; assay type: ADME, organism-based; details: in vivo
[11] = Cmax in mouse at 1 mg/kg, iv; assay type: ADME, organism-based; details: in vivo
[12] = AUC (0 to 24hrs) in mouse at 1 mg/kg, iv; assay type: ADME, organism-based; details: in vivo
[13] = AUC (0 to 24hrs) in rat at 1 mg/kg, iv; assay type: ADME, organism-based; details: in vivo
[14] = Plasma concentration in mouse xenografted with human H838 cells at 10 mg/kg, iv single dose measured after 48 hrs by LC-MS/MS analysis; assay type: ADME, organism-based, NCI-H838
[15] = Drug uptake in tumor of mouse xenografted with human H838 cells at 10 mg/kg, iv single dose measured after 6 hrs by LC-MS/MS analysis; assay type: ADME, organism-based, Neoplasm, NCI-H838; details: read-out: Drug uptake
[16] = Plasma concentration in mouse xenografted with human MV4-11 cells at 30 mg/kg, iv single dose measured after 24 hrs by LC-MS/MS analysis; assay type: ADME, organism-based
[17] = Drug uptake in tumor of mouse xenografted with human MV4-11 cells at 30 mg/kg, iv single dose measured after 96 hrs by LC-MS/MS analysis; assay type: ADME, organism-based, Neoplasm; details: read-out: Drug uptake
[18] = Metabolic stability in mouse liver microsomes assessed as half life; assay type: ADME, Microsome
[19] = Metabolic stability in rat liver microsomes assessed as half life; assay type: ADME, Microsome
Cytochrome P450 2C8 = target: T1, Cytochrome P450 2C8 (Homo sapiens, UniProt P10632); assay: Inhibition of CYP2C8 (unknown origin); assay type: ADME
T1 sequence (P10632 whole entry): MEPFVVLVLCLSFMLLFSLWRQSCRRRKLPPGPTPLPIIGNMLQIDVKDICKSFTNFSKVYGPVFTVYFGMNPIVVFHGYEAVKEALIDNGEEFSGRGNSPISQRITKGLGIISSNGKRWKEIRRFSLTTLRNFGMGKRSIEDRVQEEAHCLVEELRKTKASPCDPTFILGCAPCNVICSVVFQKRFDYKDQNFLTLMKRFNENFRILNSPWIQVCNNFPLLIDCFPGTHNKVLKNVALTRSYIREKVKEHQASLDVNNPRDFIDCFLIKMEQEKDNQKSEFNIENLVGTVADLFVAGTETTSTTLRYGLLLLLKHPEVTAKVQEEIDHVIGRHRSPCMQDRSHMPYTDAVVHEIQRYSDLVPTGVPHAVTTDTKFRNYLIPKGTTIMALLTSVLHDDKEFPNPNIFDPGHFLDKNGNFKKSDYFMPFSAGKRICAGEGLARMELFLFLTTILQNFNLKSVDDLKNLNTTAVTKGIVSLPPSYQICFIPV

Cytochrome P450 2C9 = Cytochrome P450 2C9 (Homo sapiens, UniProt P11712); assay: Inhibition of CYP2C9 (unknown origin); assay type: ADME
Sequence of Cytochrome P450 2C9 (P11712 whole entry): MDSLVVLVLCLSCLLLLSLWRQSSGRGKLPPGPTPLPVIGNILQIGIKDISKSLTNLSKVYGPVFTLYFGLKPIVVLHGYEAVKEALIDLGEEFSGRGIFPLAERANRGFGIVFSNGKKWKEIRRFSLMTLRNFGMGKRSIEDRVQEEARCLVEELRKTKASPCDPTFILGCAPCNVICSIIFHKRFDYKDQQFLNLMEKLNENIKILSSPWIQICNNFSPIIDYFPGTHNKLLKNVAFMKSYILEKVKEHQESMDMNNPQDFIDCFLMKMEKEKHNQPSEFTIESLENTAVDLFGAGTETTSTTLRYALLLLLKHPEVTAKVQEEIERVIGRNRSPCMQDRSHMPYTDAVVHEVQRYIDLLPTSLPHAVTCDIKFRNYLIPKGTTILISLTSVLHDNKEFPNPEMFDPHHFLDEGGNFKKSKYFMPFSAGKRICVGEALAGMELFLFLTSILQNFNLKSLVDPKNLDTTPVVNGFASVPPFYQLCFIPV

Cytochrome P450 3A4 = Cytochrome P450 3A4 (Homo sapiens, UniProt P08684); assay: Inhibition of CYP3A4 (unknown origin) using testosterone as substrate; assay type: ADME
Sequence of Cytochrome P450 3A4 (P08684 whole entry): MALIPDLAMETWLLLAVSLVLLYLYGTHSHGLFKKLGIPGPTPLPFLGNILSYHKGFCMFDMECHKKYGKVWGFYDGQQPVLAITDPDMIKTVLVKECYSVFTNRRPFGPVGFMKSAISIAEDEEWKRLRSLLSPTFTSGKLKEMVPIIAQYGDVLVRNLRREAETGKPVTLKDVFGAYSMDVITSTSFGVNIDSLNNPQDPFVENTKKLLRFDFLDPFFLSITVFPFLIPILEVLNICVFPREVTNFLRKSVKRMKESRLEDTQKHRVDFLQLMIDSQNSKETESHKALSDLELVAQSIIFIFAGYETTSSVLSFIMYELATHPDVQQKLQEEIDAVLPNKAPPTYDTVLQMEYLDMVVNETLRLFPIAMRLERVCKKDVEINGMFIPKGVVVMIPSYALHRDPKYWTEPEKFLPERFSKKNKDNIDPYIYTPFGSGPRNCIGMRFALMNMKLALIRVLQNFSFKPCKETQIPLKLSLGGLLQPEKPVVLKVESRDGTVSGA

Cytochrome P450 2B6 = target: T2, Cytochrome P450 2B6 (Homo sapiens, UniProt P20813); assay: Inhibition of CYP2B6 (unknown origin); assay type: ADME
T2 sequence (P20813 whole entry): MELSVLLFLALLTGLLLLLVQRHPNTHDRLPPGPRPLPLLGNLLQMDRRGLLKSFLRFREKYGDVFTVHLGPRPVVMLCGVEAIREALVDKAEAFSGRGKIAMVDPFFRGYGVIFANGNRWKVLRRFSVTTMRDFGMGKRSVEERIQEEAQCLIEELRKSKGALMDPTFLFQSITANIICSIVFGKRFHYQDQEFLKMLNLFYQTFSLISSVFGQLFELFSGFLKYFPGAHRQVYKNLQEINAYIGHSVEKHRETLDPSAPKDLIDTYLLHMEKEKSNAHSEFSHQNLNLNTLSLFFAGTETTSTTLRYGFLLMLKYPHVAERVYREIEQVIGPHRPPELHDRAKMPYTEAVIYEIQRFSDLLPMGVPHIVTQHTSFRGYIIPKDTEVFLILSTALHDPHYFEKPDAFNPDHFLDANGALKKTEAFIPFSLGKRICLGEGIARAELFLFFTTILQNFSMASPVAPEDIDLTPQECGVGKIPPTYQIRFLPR

NCI-H838 [20] = assay: In vivo anti-tumor activity against human NCI-H838 cells xenografted in SCID mouse assessed as assessed as inhibition of tumor growth at 30 mg/kg, iv measured after 3 weeks relative to control; assay type: functional; details: NCI-H838, 504 h, read-out: TGI
[21] = Toxicity in SCID mouse xenografted with human H838 cells assessed as body weight loss at 30 mg/kg, iv measured after 3 weeks; assay type: organism-based; details: in vivo, 504 h
NCI-H838 [22] = assay: In vivo anti-tumor activity against human NCI-H838 cells xenografted in SCID mouse assessed as assessed as inhibition of tumor growth at 30 mg/kg, iv treated for 3 weeks measured after treatment stop; assay type: functional, organism-based
[23] = Toxicity in SCID mouse assessed as body weight loss at 50 mg/kg, iv twice a week; assay type: organism-based; details: in vivo
[24] = Toxicity in SCID mouse assessed as toxicity signs at 50 mg/kg, iv twice a week; assay type: organism-based; details: in vivo

Cc1ncsc1-c1ccc([C@H](CN2CCOCC2)NC(=O)[C@@H]2C[C@@H](O)CN2C(=O)[C@@H](n2cc([C@H]3CC[C@H](CN4CCC(c5ccc6c(c5)-n5c(nc(=O)c7c(Cl)cccc75)C65CCCCC5)CC4)CC3)nn2)C(C)(C)C)cc1
concentration at 96 h [1]: 6.8 ng/mL
concentration at 24 h [2]: 400 ng/mL
concentration at 96 h [3]: 268 ng/mL
concentration at 168 h [4]: 169 ng/mL
GI50 [5]: 9.8 nM
GI50 [6]: 4.8 nM
GI50 (NCI-H1792): > 10 µM
Imax (SK-MEL-5): 95%
Imax [7]: 80%
Imax [8]: 86%
Imax [9]: 85%
half-life [10]: 504 min
Cmax [11]: 2230 ng/mL
AUC(0-t) [12]: 1740 ng·h/mL
AUC(0-t) [13]: 753 ng·h/mL
concentration at 48 h [14]: 15 ng/mL
concentration at 6 h [15]: 608 ng/mL
concentration at 24 h [16]: 139 ng/mL
concentration at 96 h [17]: 1640 ng/mL
half-life [18]: > 60 min
half-life [19]: > 60 min
IC50 (Cytochrome P450 2C8): > 100 µM
IC50 (Cytochrome P450 2C9): > 100 µM
IC50 (Cytochrome P450 3A4): > 100 µM
IC50 (Cytochrome P450 2B6): > 100 µM
inhibition in vivo at 30 mg/kg (NCI-H838 [20]): 91%
Activity [21]: Non-toxic
Activity (NCI-H838 [22]): inactive
Activity [23]: Non-toxic
Activity [24]: Non-toxic
